The subject of this data set is CCRIS mutagenicity, Ames/micronucleus/aberration tests. The experiment in a line: CCRIS mutagenicity studies.
Setting [1] is: Test System: AMES SALMONELLA TYPHIMURIUM, Strain/Indicator: TA98, Metabolic Activation: NONE, Method: STANDARD PLATE.
Where [2] appears, read: Test System: AMES SALMONELLA TYPHIMURIUM, Strain/Indicator: TA98, Metabolic Activation: RAT, LIVER, S-9, AROCLOR 1254, Method: STANDARD PLATE.
Where [3] appears, read: Test System: AMES SALMONELLA TYPHIMURIUM, Strain/Indicator: TA100, Metabolic Activation: NONE, Method: STANDARD PLATE.
Setting [4] is: Test System: AMES SALMONELLA TYPHIMURIUM, Strain/Indicator: TA100, Metabolic Activation: RAT, LIVER, S-9, AROCLOR 1254, Method: STANDARD PLATE.

Active and inactive are the calls of the source. No rule for the calls is given here.

With `Nc1cc2nc3ccccc3nc2cc1O`, the mutagenic call is, setting by setting: (Test System: AMES SALMONELLA TYPHIMURIUM, Strain/Indicator: TA98(1,8-DNP6), Metabolic Activation: NONE, Method: PREINCUBATION) “inactive; negative”; (Test System: AMES SALMONELLA TYPHIMURIUM, Strain/Indicator: TA98(1,8-DNP6), Metabolic Activation: S-9, Method: PREINCUBATION) “inactive; negative”; (Test System: AMES SALMONELLA TYPHIMURIUM, Strain/Indicator: TA98, Metabolic Activation: NONE, Method: PREINCUBATION) “inactive; negative”; under setting [1], “active; positive”; under setting [2], “active; positive”; (Test System: AMES SALMONELLA TYPHIMURIUM, Strain/Indicator: TA98, Metabolic Activation: S-9, Method: PREINCUBATION) “inactive; negative”. Also, the mutagenic call (Test System: AMES SALMONELLA TYPHIMURIUM, Strain/Indicator: TA100(OAT-), Metabolic Activation: NONE, Method: PREINCUBATION) was “inactive; negative”; the mutagenic call (Test System: AMES SALMONELLA TYPHIMURIUM, Strain/Indicator: TA100(OAT-), Metabolic Activation: S-9, Method: PREINCUBATION) is “inactive; negative”; the mutagenic call (Test System: AMES SALMONELLA TYPHIMURIUM, Strain/Indicator: TA100, Metabolic Activation: NONE, Method: PREINCUBATION) was “inactive; negative”; the mutagenic call under setting [3] is “inactive; negative”; the mutagenic call under setting [4] was “active; positive”; the mutagenic call (Test System: AMES SALMONELLA TYPHIMURIUM, Strain/Indicator: TA100, Metabolic Activation: S-9, Method: PREINCUBATION) is “inactive; negative”. Further, the mutagenic call runs as follows: (Test System: AMES SALMONELLA TYPHIMURIUM, Strain/Indicator: TA1537, Metabolic Activation: NONE, Method: STANDARD PLATE) “active; positive”; (Test System: AMES SALMONELLA TYPHIMURIUM, Strain/Indicator: TA1537, Metabolic Activation: RAT, LIVER, S-9, AROCLOR 1254, Method: STANDARD PLATE) “active; positive”; (Test System: AMES SALMONELLA TYPHIMURIUM, Strain/Indicator: YG1024, Metabolic Activation: PLANT CELL-FREE EXTRACT, Method: PREINCUBATION) “active; positive”; (Test System: AMES SALMONELLA TYPHIMURIUM, Strain/Indicator: YG1024, Metabolic Activation: S-9, Method: PREINCUBATION) “active; positive”; (Test System: AMES SALMONELLA TYPHIMURIUM, Strain/Indicator: YG1029, Metabolic Activation: S-9, Method: PREINCUBATION) “active; positive”.

Consider `Cc1ccncc1`, for which the mutagenic call by setting is: (Test System: AMES SALMONELLA TYPHIMURIUM, Strain/Indicator: TA97, Metabolic Activation: NONE, Method: STANDARD PLATE) “inactive; negative”; (Test System: AMES SALMONELLA TYPHIMURIUM, Strain/Indicator: TA97, Metabolic Activation: RAT, LIVER, S-9, AROCLOR 1254, Method: STANDARD PLATE) “inactive; negative”; under setting [1], “inactive; negative”; under setting [2], “inactive; negative”; under setting [3], “inactive; negative”; under setting [4], “inactive; negative”. In addition, the mutagenic call by setting is: (Test System: AMES SALMONELLA TYPHIMURIUM, Strain/Indicator: TA102, Metabolic Activation: NONE, Method: STANDARD PLATE) “inactive; negative”; (Test System: AMES SALMONELLA TYPHIMURIUM, Strain/Indicator: TA102, Metabolic Activation: RAT, LIVER, S-9, AROCLOR 1254, Method: STANDARD PLATE) “inactive; negative”.

With `CCOC(=O)C(=NNc1ccc(-c2ccc(NN=C(C(=O)OCC)C(=O)OCC)c(OC)c2)cc1OC)C(=O)OCC`, the mutagenic call (Test System: AMES SALMONELLA TYPHIMURIUM, Strain/Indicator: TA98, Metabolic Activation: HAMSTER, LIVER, S-9, Method: PREINCUBATION (PRIVAL METHOD)) is “inactive; negative”.

As for `O=C1CC2=C(CCCC2)c2c1c1c(c3c2=CC=C3)C=CC=1`, the mutagenic call under setting [4] is “inactive; negative”.

Regarding `CC(F)(Cl)Cl`, the mutagenic call reads like this: (End Point: IN VIVO MICRONUCLEUS, Test System: BONE MARROW, Species: RAT, Strain/Sex: SPRAGUE-DAWLEY/FEMALE, Route: INHALATION) “inactive; negative”; (End Point: IN VIVO MICRONUCLEUS, Test System: BONE MARROW, Species: RAT, Strain/Sex: SPRAGUE-DAWLEY/MALE, Route: INHALATION) “active; positive”.

On to `CC(O)CO` (stereo not given) (tested in a mixture with another compound), for which the mutagenic call was “inactive; negative” (Test System: AMES SALMONELLA TYPHIMURIUM, Strain/Indicator: TA102, Metabolic Activation: RAT, LIVER, S-9, PHENOBARBITAL AND 5,6-BENZOFLAVONE, Method: STANDARD PLATE); “inactive; negative” (Test System: AMES SALMONELLA TYPHIMURIUM, Strain/Indicator: TA2638, Metabolic Activation: RAT, LIVER, S-9, PHENOBARBITAL AND 5,6-BENZOFLAVONE, Method: STANDARD PLATE); “active; positive” (Test System: E. COLI, Strain/Indicator: WP2 (PKM101), Metabolic Activation: RAT, LIVER, S-9, PHENOBARBITAL AND 5,6-BENZOFLAVONE, Method: STANDARD PLATE); “active; positive” (Test System: E. COLI, Strain/Indicator: WP2 UVRA (PKM101), Metabolic Activation: RAT, LIVER, S-9, PHENOBARBITAL AND 5,6-BENZOFLAVONE, Method: STANDARD PLATE).

In the case of `CC(=O)N(N=O)c1ccc2c(c1)Cc1ccccc1-2`, the mutagenic call reads like this: (Test System: CHINESE HAMSTER OVARY, Strain/Indicator: CHO/6-THIOGUANINE (HGPRT), Metabolic Activation: NONE, Method: STANDARD PLATE) “active; positive”; (Test System: CHINESE HAMSTER OVARY, Strain/Indicator: CHO/OUABAIN (HGPRT), Metabolic Activation: NONE, Method: STANDARD PLATE) “active; positive”.

The values are drawn from PubChem BioAssay AID1259407 (Chemical Carcinogenesis Research Information System (CCRIS), 2018).
